pIC50: −log10 of the molar value. Positions of bridges follow the written chain, without caps; N, C: chain ends. Non-standard residues stand in square brackets, D forms with d. Residues, ends and D or L forms follow the SMILES beside them. Pen = CC(C)(S)[C@H](N)C(=O)O
Tests used:
A-375 = assay: Inhibition of cell adhesion in human A-375 cells; type: functional, cell-based
HBL-100 = assay: Inhibition of cell adhesion in human HBL-100 cells; type: functional, cell-based
HT-1080 = assay: Inhibition of cell adhesion in human HT-1080 cells; type: functional, cell-based
Integrin alpha-5/beta-1 = Integrin alpha-5/beta-1 (Homo sapiens, UniProt P05556+P08648); assay: Binding affinity to integrin alpha5beta1 (unknown origin) assessed as inhibition of integrin and fibronectin interaction; type: protein-complex assay
Integrin alpha-5/beta-1, sequence (P05556 21-798 limits assumed): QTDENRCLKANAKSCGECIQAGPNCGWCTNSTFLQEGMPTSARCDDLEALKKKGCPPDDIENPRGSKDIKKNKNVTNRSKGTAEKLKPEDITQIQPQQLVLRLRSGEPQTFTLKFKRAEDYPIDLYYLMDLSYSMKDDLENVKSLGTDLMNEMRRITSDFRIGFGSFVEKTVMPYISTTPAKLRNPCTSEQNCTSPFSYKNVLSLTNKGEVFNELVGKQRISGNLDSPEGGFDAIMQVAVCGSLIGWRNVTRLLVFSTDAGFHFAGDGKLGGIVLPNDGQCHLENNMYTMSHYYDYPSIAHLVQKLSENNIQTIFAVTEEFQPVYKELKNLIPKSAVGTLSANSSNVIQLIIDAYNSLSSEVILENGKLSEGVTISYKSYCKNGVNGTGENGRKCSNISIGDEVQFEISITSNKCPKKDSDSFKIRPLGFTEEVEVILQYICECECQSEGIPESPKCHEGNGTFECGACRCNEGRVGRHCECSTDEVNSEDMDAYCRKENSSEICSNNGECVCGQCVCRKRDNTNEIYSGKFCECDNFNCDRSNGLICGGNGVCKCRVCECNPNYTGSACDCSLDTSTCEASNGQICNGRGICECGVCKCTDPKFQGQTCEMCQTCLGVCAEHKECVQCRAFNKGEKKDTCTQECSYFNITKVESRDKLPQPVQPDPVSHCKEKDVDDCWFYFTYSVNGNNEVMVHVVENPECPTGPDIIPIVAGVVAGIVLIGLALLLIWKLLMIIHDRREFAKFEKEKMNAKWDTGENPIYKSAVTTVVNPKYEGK
Integrin alpha-5/beta-1, sequence (P08648 42-894 limits assumed): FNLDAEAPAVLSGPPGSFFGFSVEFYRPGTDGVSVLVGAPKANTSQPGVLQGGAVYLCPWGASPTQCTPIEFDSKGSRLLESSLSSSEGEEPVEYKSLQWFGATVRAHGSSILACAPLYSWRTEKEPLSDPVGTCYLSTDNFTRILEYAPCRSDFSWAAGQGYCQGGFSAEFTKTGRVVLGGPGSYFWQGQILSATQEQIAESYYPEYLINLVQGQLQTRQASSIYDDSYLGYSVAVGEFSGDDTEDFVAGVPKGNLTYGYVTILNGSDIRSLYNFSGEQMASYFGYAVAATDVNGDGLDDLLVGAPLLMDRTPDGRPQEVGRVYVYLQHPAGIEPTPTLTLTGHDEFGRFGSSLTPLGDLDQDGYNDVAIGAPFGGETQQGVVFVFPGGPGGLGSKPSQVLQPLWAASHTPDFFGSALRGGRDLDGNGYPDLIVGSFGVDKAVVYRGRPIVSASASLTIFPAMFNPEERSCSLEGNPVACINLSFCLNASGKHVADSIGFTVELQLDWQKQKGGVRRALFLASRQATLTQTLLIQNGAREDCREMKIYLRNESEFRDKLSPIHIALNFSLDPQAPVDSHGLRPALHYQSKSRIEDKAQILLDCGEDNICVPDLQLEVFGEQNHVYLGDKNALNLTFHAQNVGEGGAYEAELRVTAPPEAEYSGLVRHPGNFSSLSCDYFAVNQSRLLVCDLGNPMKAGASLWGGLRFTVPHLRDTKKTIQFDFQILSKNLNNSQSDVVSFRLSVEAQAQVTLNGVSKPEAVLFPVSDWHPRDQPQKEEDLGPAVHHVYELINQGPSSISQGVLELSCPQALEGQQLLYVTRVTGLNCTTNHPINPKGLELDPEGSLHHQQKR
Integrin alpha-5/beta-1, sequence (P08648 895-1049 limits assumed): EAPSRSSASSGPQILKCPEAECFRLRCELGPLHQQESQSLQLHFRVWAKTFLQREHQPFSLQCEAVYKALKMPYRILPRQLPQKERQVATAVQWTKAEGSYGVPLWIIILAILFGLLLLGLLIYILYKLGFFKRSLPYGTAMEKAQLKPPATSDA

SMILES | pIC50 (A-375) | pIC50 (HBL-100) | pIC50 (HT-1080) | pIC50 (Integrin alpha-5/beta-1)
CC(=O)N[C@H]1CSSC(C)(C)[C@@H](C(N)=O)NC(=O)[C@H](Cc2ccccc2)NC(=O)[C@H](CC(=O)O)NC(=O)CNC(=O)[C@H](CCCNC(=N)N)NC1=O (Ac-CRGDF[Pen]-NH2; disulfide 1-6) | 7.00 | 7.00 | 7.00 | 
CC[C@H](C)[C@H](NC(=O)[C@@H](N)C(C)C)C(=O)N[C@@H](CC(C)C)C(=O)N[C@H](C(=O)N[C@@H](CC(C)C)C(=O)N[C@@H](Cc1ccccc1)C(=O)O)C(C)C (H-VILVLF-OH) |  |  |  | 5.81
